Test results taken from patent US5571788A, “Stable calcitonin pharmaceutical compositions” (Ciba-Geigy Corporation, priority 1994, dated 1996).

Key:
[1] = Long-time hCT stability of aqueous solutions (solution remains clear, free of fibrils); settings: for time solution is stable: Example 1 repeated (5 mg/ml hCT) with acetic acid replaced by the named acid
[2] = Ability of an acid to produce a stable hCT solution (stored 24 hours at 25° C., solution remains clear); format: physicochemical; settings: aqueous hCT solution with the acid, no salt or buffer
[3] = SUNTEST accelerated light exposure, stability against fibril formation; format: physicochemical; settings: Example 3 solutions with 0.5% hydroxypropylmethylcellulose; after 24 hours at 47° C. in SUNTEST machine
[4] = Absorption spectra and HPLC of stored hCT solutions; format: physicochemical; settings: hCT stored in aqueous solutions of Example 1
[5] = Extrapolated time of fibrillation (ln/ln plot of fibrillation time against hCT concentration); format: physicochemical; settings: 5-9 mg/ml hCT in 0.001% acetic acid, 4° C.; ln/ln plot from solutions up to 100 mg/ml hCT
Method: The stability of the solution is dependent on the concentration. We have found a linear correlation between the natural logarithm of fibrillation time and the natural logarithm of hCT concentration at a given temperature. From measurements on hCT solutions with concentrations up to 100 mg/ml hCT and using the 1n/1n plot, stability of more than 5 years at 4° C. is predicted for solutions with 5-9 mg/ml hCT in 0.001% acetic acid.
Solutions of hCT are made using different concentrations of methyl cellulose (MC) and hydroxypropyl methyl cellulose (HPMC) with and without 0.01% benzethonium chloride (BTC), in one case also with 0.001% acetic acid (AA) and in one case using 0.5% dextran (D). The extrapolated time of fibrillation in years is given for hCT concentration of 3.3 mg/ml and 6.6 mg/ml.

[6] = Chemical stability tests (Roger's test); format: physicochemical; settings: 3.3 mg/ml hCT, 0.5% methyl cellulose, 0.02% benzethonium chloride, 0.001% acetic acid; in 5 years, storage at 10° C.
Method: A solution of hCT is made containing 3.3 mg/ml hCT, 0.5% methyl cellulose, 0.02% benzethonium chloride and 0.001% acetic acid. Chemical stability tests (Roger's test) predicted only 0.02% chemical decomposition of the hCT in 5 years for storage at 10° C.

time solution is stable [1] | acid forms stable hCT solution [2] | Molecule | also measured
over 4 days | form stable solutions | O=C(O)CCCCC(=O)O [adipic acid] | –
– | form stable solutions | CC(=O)O [acetic acid] | stabilising conditions for hCT solution ([1]; acid concentration 0.001%): best case
over 4 days | – | N[C@@H](CCC(=O)O)C(=O)O [L-glutamic acid] | –
– | do not form stable solutions | N[C@H](CCC(=O)O)C(=O)O [D-glutamic acid] | –
– | form stable solutions | O=C(O)CN(CCN(CC(=O)O)CC(=O)O)CC(=O)O [ethylene - diamine tetraacetic acid] | –
– | do not form stable solutions | N[C@@H](CC(=O)O)C(=O)O [aspartic acid] | –
over 4 days | – | O=C(O)CCC(=O)O [succinic acid] | –
over 4 days | form stable solutions | O=C1O[C@H]([C@@H](O)CO)C(O)=C1O [ascorbic acid] | –
over 4 days | form stable solutions | O=C(O)CC(O)(CC(=O)O)C(=O)O [citric acid] | –

Second part, the molecule before the results:

Molecule | time solution is stable [1] | acid forms stable hCT solution [2] | also measured
O=C(O)CC(=O)O [malonic acid] | over 4 days | form stable solutions | –
O=C(O)CCCC(=O)O [glutaric acid] | over 4 days | form stable solutions | –
human calcitonin [hCT] | – | – | stability against fibril formation under accelerated light exposure [3]: stable against fibril formulation; time solutions are stable ([1]; Example 3: Example 1 solutions (5 mg/ml hCT, acetic acid) plus 0.5% hydroxypropylmethylcellulose, 4° C., 22° C. and 37° C., in the dark or in daylight): more than 3.5 months; change in hCT properties (absorption spectra and HPLC) [4]: no change in hCT properties; predicted stability of hCT solution [5]: more than 5 years; predicted chemical decomposition of the hCT [6]: 0.02%
O=CO [formic acid] | over 4 days | form stable solutions | –
Cl [hydrochloric acid] | over 4 days | form stable solutions | –
O=C(O)/C=C\C(=O)O [maleic acid] | – | do not form stable solutions | –
O=C(O)C(O)C(O)C(=O)O [L-α-tartaric acid] | over 4 days | form stable solutions | –
O=S(=O)(O)O [sulphuric acid] | – | do not form stable solutions | –
Oc1ccccc1 [phenol] | – | form stable solutions | –
O=C(O)[C@H](O)[C@@H](O)[C@H](O)[C@H](O)CO [gluconic acid] | – | do not form stable solutions | –
O=C(O)C(O)C(O)C(=O)O (racemic) [DL-tartaric acid] | over 4 days | form stable solutions | –
